In patent publication EP0259014A2, “5-Deoxy-5-fluorokanamycin B derivatives and processes for the production thereof” (ZAIDAN HOJIN BISEIBUTSU KAGAKU KENKYU KAI, priority 1986, dated 1988):
Converted amounts (≈) assume the structure as drawn. Where two headings read alike, the source gives them in different places.

Tests used:
[1] = tested on: Staphylococcus aureus Ap 01; assay: Antibacterial activity against resistant strain (background statement); assay type: cell-based; details: Staphylococcus aureus Ap 01, resistant strain producing enzyme reacting with the 4'-hydroxyl group
[2] = tested on: Staphylococcus epidermidis 109; assay: as above; assay type: cell-based; details: Staphylococcus epidermidis 109, resistant strain producing enzyme reacting with the 4'-hydroxyl group
[3] = tested on: Staphylococcus aureus 209P; assay: MIC, serial dilution on Mueller Hinton agar; assay type: cell-based
[4] = tested on: Staphylococcus aureus Ap01; assay: MIC, serial dilution on Mueller Hinton agar; assay type: cell-based
[5] = tested on: Corynebacterium bovis 1810; assay: MIC, serial dilution on Mueller Hinton agar; assay type: cell-based
Escherichia coli K-12 = assay: MIC, serial dilution on Mueller Hinton agar; assay type: cell-based
Escherichia coli K-12 R5 = assay: MIC, serial dilution on Mueller Hinton agar; assay type: cell-based; details: K12R5, 18 h
[6] = tested on: Escherichia coli K-12 LA 290 R55; assay: MIC, serial dilution on Mueller Hinton agar; assay type: cell-based; details: Escherichia coli, K12LA290R55, 18 h
[7] = tested on: Klebsiella pneumoniae 22#3038; assay: MIC, serial dilution on Mueller Hinton agar; assay type: cell-based; details: Klebsiella pneumoniae 22#3038, resistance mechanism APH(3')-II, ANT(2"), 37°C, 18 hours
Source text: The antibacterial spectra so determined of the new compounds No. 1 to No. 13 (each in the form of the free base) of this invention are as shown in Table 1 below.

Proteus rettgeri GN 311 = assay: MIC, serial dilution on Mueller Hinton agar; assay type: cell-based; details: Providencia rettgeri
Serratia marcescens = assay: MIC, serial dilution on Mueller Hinton agar; assay type: cell-based
Providencia sp. Pv 16 = assay: MIC, serial dilution on Mueller Hinton agar; assay type: cell-based
[8] = tested on: Pseudomonas aeruginosa A3; assay: MIC, serial dilution on Mueller Hinton agar; assay type: cell-based
[9] = tested on: Pseudomonas aeruginosa GN 315; assay: MIC, serial dilution on Mueller Hinton agar; assay type: cell-based; details: GN315; Pseudomonas aeruginosa GN 315, resistance mechanism AAC(6'); Mueller Hinton agar, 37°C, 18 hours; read-out: MIC.
in vivo = details: mouse, iv
Bacillus subtilis PCI219 = assay: MIC, serial dilution on Mueller Hinton agar; assay type: cell-based
[10] = tested on: Escherichia coli K-12 ML 1629; assay: MIC, serial dilution on Mueller Hinton agar; assay type: cell-based; details: K12ML1629, Escherichia coli K-12 ML 1629, resistance mechanism APH(3')-I, 37°C, 18 hours
Escherichia coli JR225 = assay: microbe, parasite or virus in culture; assay type: cell-based; details: Escherichia coli, JR225, 18 h
[11] = tested on: Escherichia coli JR66/W677; assay: microbe, parasite or virus in culture; assay type: cell-based; details: JR66/W677, 18 h
Mycobacterium 607 = assay: MIC, serial dilution on Mueller Hinton agar; assay type: cell-based
[12] = Staphylococcus aureus 209P, Mueller Hinton agar, 37°C, 18 hours, read-out: MIC.
[13] = Staphylococcus aureus Ap01, resistance mechanism ANT(4'), Mueller Hinton agar, 37°C, 18 hours, read-out: MIC.
[14] = Corynebacterium bovis 1810, Mueller Hinton agar, 37°C, 18 hours, read-out: MIC.
[15] = K12, Escherichia coli K-12, Mueller Hinton agar, 37°C, 18 hours, read-out: MIC.
[16] = GN311, Proteus rettgeri GN 311, Mueller Hinton agar, 37°C, 18 hours, read-out: MIC.
[17] = Mueller Hinton agar, 37°C, 18 hours, read-out: MIC.
[18] = Pseudomonas aeruginosa A3, Mueller Hinton agar, 37°C, 18 hours, read-out: MIC.
[19] = Bacillus subtilis PCI219, Mueller Hinton agar, 37°C, 18 hours, read-out: MIC.
[20] = SP.PV16, Providencia sp. Pv 16, resistance mechanism AAC(2'), Mueller Hinton agar, 37°C, 18 hours, read-out: MIC.
[21] = Mycobacterium 607, Mueller Hinton agar, 37°C, incubated for 40 hours, read-out: MIC.

| SMILES | MIC [3, 12] | MIC [4, 13] | MIC [5, 14] | MIC (Escherichia coli K-12; [15]) | MIC (Escherichia coli K-12 R5) | MIC [6] | MIC [7] | MIC (Proteus rettgeri GN 311; [16]) | MIC (Serratia marcescens; [17]) | MIC [8, 18] | MIC [9] | LD50 (in vivo) | MIC (Bacillus subtilis PCI219; [19]) | MIC [10] | MIC (Escherichia coli JR225) | MIC [11] | MIC (Providencia sp. Pv 16; [20]) | MIC (Mycobacterium 607; [21]) | further results |
| --- | --- | --- | --- | --- | --- | --- | --- | --- | --- | --- | --- | --- | --- | --- | --- | --- | --- | --- | --- |
| NCC1OC(OC2C(N)CC(N)C(OC3OC(CO)C(O)C(N)C3O)C2O)C(N)C(F)C1O (stereo not shown) [3'-fluoro-3'-deoxykanamycin B] | – | – | – | – | – | – | – | – | – | – | – | – | – | – | – | – | – | – | antibacterial activity [1]: low antibacterial activity; antibacterial activity [2]: low antibacterial activity |
| NC[C@H]1O[C@H](O[C@H]2[C@H](F)[C@@H](O[C@H]3O[C@H](CO)[C@@H](O)[C@H](N)[C@H]3O)[C@H](N)C[C@@H]2N)[C@H](N)C[C@@H]1O [Compound No. 2, 5,3'-Dideoxy-5-fluorokanamycin B] | 0.39 µg/mL (≈ 0.831 µM) | 0.39 µg/mL (≈ 0.831 µM) | 1.56 µg/mL (≈ 3.32 µM) | < 0.2 µg/mL | 25 µg/mL (≈ 53.2 µM) | 3.12 µg/mL (≈ 6.65 µM) | 3.12 µg/mL (≈ 6.65 µM) | < 0.2 µg/mL | 6.25 µg/mL (≈ 13.3 µM) | < 0.2 µg/mL | 50 µg/mL (≈ 106 µM) | 200 mg/kg | – | – | – | – | – | – | MIC (Providencia sp. Pv 16; Providencia, SP.PV16, 18 h): 3.12 µg/mL (≈ 6.65 µM) |
| NC[C@@H]1CC[C@@H](N)[C@@H](O[C@H]2[C@H](F)[C@@H](O[C@H]3O[C@H](CO)[C@@H](O)[C@H](N)[C@H]3O)[C@H](N)C[C@@H]2N)O1 [Compound No. 4, 5,3',4'-Trideoxy-5-fluorokanamycin B] | 0.78 µg/mL (≈ 1.72 µM) | – | – | – | 100 µg/mL (≈ 221 µM) | 6.25 µg/mL (≈ 13.8 µM) | 6.25 µg/mL (≈ 13.8 µM) | 0.78 µg/mL (≈ 1.72 µM) | 12.5 µg/mL (≈ 27.6 µM) | 0.39 µg/mL (≈ 0.86 µM) | 100 µg/mL (≈ 221 µM) | 140 mg/kg | 0.78 µg/mL (≈ 1.72 µM) | 3.12 µg/mL (≈ 6.88 µM) | 3.12 µg/mL (≈ 6.88 µM) | 3.12 µg/mL (≈ 6.88 µM) | 12.5 µg/mL (≈ 27.6 µM) | – | MIC ([4]; Staphylococcus aureus, AP01, 18 h): 3.12 µg/mL (≈ 6.88 µM); MIC ([5]; Corynebacterium bovis, 1810, 18 h): 6.25 µg/mL (≈ 13.8 µM); MIC (Escherichia coli K-12; Escherichia coli, K12, 18 h): 3.12 µg/mL (≈ 6.88 µM); MIC (Mycobacterium 607; Mycobacterium, 607, 40 h): 6.25 µg/mL (≈ 13.8 µM) |
| NCC[C@H](O)C(=O)N[C@@H]1C[C@H](N)[C@@H](O[C@H]2O[C@H](CN)[C@@H](O)C[C@H]2N)[C@H](F)[C@H]1O[C@H]1O[C@H](CO)[C@@H](O)[C@H](N)[C@H]1O [Compound No. 9, 1-N-(4-Amino-2-(S)-hydroxybutyryl)-5,3'-dideoxy-5-fluorokanamycin B] | 0.39 µg/mL (≈ 0.683 µM) | 0.78 µg/mL (≈ 1.37 µM) | < 0.2 µg/mL | < 0.2 µg/mL | 3.12 µg/mL (≈ 5.47 µM) | 0.78 µg/mL (≈ 1.37 µM) | 1.56 µg/mL (≈ 2.73 µM) | < 0.2 µg/mL | – | 0.39 µg/mL (≈ 0.683 µM) | 6.25 µg/mL (≈ 11 µM) | 150 mg/kg | < 0.2 µg/mL | 0.78 µg/mL (≈ 1.37 µM) | 0.39 µg/mL (≈ 0.683 µM) | 0.78 µg/mL (≈ 1.37 µM) | 0.78 µg/mL (≈ 1.37 µM) | 0.78 µg/mL (≈ 1.37 µM) | MIC (Serratia marcescens; 18 h): 3.12 µg/mL (≈ 5.47 µM) |
| NCC[C@H](O)C(=O)N[C@@H]1C[C@H](N)[C@@H](O[C@H]2O[C@H](CN)CC[C@H]2N)[C@H](F)[C@H]1O[C@H]1O[C@H](CO)[C@@H](O)[C@H](N)[C@H]1O [Compound No. 13, 1-N-(4-Amino-2-(S)-hydroxybutyryl)-5,3',4-trideoxy-5-fluorokanamycin B] | 0.39 µg/mL (≈ 0.703 µM) | 0.78 µg/mL (≈ 1.41 µM) | < 0.2 µg/mL | 0.2 µg/mL (≈ 0.361 µM) | 50 µg/mL (≈ 90.2 µM) | 0.78 µg/mL (≈ 1.41 µM) | 0.78 µg/mL (≈ 1.41 µM) | < 0.2 µg/mL | 1.56 µg/mL (≈ 2.81 µM) | 0.39 µg/mL (≈ 0.703 µM) | 6.25 µg/mL (≈ 11.3 µM) | 150 mg/kg | 0.39 µg/mL (≈ 0.703 µM) | 0.39 µg/mL (≈ 0.703 µM) | 0.2 µg/mL (≈ 0.361 µM) | 0.78 µg/mL (≈ 1.41 µM) | 0.78 µg/mL (≈ 1.41 µM) | 0.78 µg/mL (≈ 1.41 µM) | – |
| NC[C@H]1O[C@H](O[C@H]2[C@H](O)[C@@H](O[C@H]3O[C@H](CO)[C@@H](O)[C@H](N)[C@H]3O)[C@H](N)C[C@@H]2N)[C@H](N)[C@@H](O)[C@@H]1O [KMB, kanamycin B] | – | 25 µg/mL (≈ 51.7 µM) | 0.78 µg/mL (≈ 1.61 µM) | – | 50 µg/mL (≈ 103 µM) | 12.5 µg/mL (≈ 25.9 µM) | > 100 µg/mL | – | 3.12 µg/mL (≈ 6.45 µM) | – | 50 µg/mL (≈ 103 µM) | 110 mg/kg | – | > 100 µg/mL | 12.5 µg/mL (≈ 25.9 µM) | > 100 µg/mL | – | 1.56 µg/mL (≈ 3.23 µM) | MIC ([3]; Staphylococcus aureus, 209P, 18 h): 0.39 µg/mL (≈ 0.807 µM); MIC (Bacillus subtilis PCI219; Bacillus subtilis, PCI219, 18 h): < 0.2 µg/mL; MIC (Escherichia coli K-12; Escherichia coli, K12, 18 h): 0.39 µg/mL (≈ 0.807 µM); MIC (Proteus rettgeri GN 311; GN311, 18 h): 0.2 µg/mL (≈ 0.414 µM); MIC (Providencia sp. Pv 16; Providencia, SP.PV16, 18 h): 12.5 µg/mL (≈ 25.9 µM); MIC ([8]; Pseudomonas aeruginosa, A3, 18 h): 1.56 µg/mL (≈ 3.23 µM) |
| NC[C@H]1O[C@H](O[C@H]2[C@H](O)[C@@H](O[C@H]3O[C@H](CO)[C@@H](O)[C@H](N)[C@H]3O)[C@H](N)C[C@@H]2N)[C@H](N)C[C@@H]1O [TMB, 3'-deoxykanamycin B, reference compound] | < 0.2 µg/mL | 1.56 µg/mL (≈ 3.34 µM) | 6.25 µg/mL (≈ 13.4 µM) | 0.39 µg/mL (≈ 0.834 µM) | 100 µg/mL (≈ 214 µM) | 25 µg/mL (≈ 53.5 µM) | 12.5 µg/mL (≈ 26.7 µM) | 0.2 µg/mL (≈ 0.428 µM) | – | < 0.2 µg/mL | 50 µg/mL (≈ 107 µM) | 80 mg/kg | < 0.2 µg/mL | – | 25 µg/mL (≈ 53.5 µM) | 12.5 µg/mL (≈ 26.7 µM) | 6.25 µg/mL (≈ 13.4 µM) | – | MIC (Serratia marcescens; 18 h): 12.5 µg/mL (≈ 26.7 µM) |
